Results taken from US20080269053A1, “Amino Acid Compositions and Methods of Using as Fertilizer” (priority 2007, published 2008).

Experiments:
Creeping bentgrass [1] = experiment: Phytotoxicity rating, creeping bentgrass fairways; format: in vivo, Agrostis
Excerpt: Creeping bentgrass is a major choice for fairways, golf greens and tees in the cool-temperate zone. It has the ability to withstand close mowing and is very “aggressive” which allows for quick recovery from injuries. Creeping bentgrass was fertilized in Fairways substantially the same as described in example 1 at three different rates: half, full and 3× normal rates (0.5, 1.0 and 3.0 lbs nitrogen/1000/month) applied on a monthly basis. Turfgrass quality ratings were taken every month from June through November along with “color” and “phytotoxicity” ratings. Turfgrass quality and toxicity were measured on a 1-9 visual basis with 9 representing the highest quality turf or most injury/burn to the turfgrass. Fairways toxicity ratings and turfgrass quality ratings are shown in FIGS. 10 and 11, respectively. The most crucial months with regard to fertilizer application toxicity are the mid-summer months of July and August due to hotter and more humid conditions which typically amplify any potential for fertilizer “burn” injury.

Creeping bentgrass [2] = experiment: Phytotoxicity rating, creeping bentgrass greens; format: in vivo, Agrostis; settings: bi-weekly application
Procedure: (§1) Creeping bentgrass is a major choice for fairways, golf greens and tees in the cool-temperate zone. It has the ability to withstand close mowing and is very “aggressive” allowing for quick recovery from injuries. It was fertilized in greens at half, full and […] rate of application (0.063, 0.125 and 0.25 lbs nitrogen/1000 sq ft) on a bi-weekly basis. Turfgrass quality and toxicity were measured on a 1-9 visual basis, with 9 representing the highest quality turf or the most injury respectively. Fairways toxicity ratings and turfgrass quality ratings are shown in FIGS. 12 and 13, respectively.

Creeping bentgrass [3] = experiment: Turfgrass quality after true foliar application, creeping bentgrass greens and tees; format: in vivo, Agrostis; settings: averaged over six weeks
Excerpt: (§2) True foliar applications were studied with Tall Fescue grass. Normal foliar rates of 0.5, 1.0 and 3.0 lb nitrogen per 1000 sq ft were used with water volumes in the range of 0.5 to 2.0 gallons per 1000 sq ft (for comparison non-foliar, normal liquid spray applications are typically more than 4.0 gallons of water per 1000 sq ft.) Results are presented in FIG. 15 for mean data taken during a 5 week period. […] However, as true application rates are ⅛ the 1× rate, burn potential for foliar applications is limited.
True foliar applications were studied with creeping bentgrass on greens and tees at the rates used in Example 9.

Bermuda grass [4] = experiment: Turfgrass quality after true foliar application, Bermuda grass fairways; format: in vivo, Cynodon spp.; settings: mean over seven weeks
Excerpt: as §2
(§3) True foliar applications were studied with Bermuda grass in Fairways at the rates used in EXAMPLE 9. Results for mean data averaged over seven weeks for burn rate and turfgrass quality are presented in FIGS. 17 and 18, respectively. […] Lysine HCl had 3-5% burn levels depending upon the rate of application.

Kentucky blue grass = experiment: Turfgrass quality rating, Kentucky blue grass lawns; format: in vivo, Poa pratensis; settings: 1.0 lb nitrogen per 1000 sq ft per month
Procedure: Kentucky blue grass is often used as a turfgrass species in the cool, temperature zone as a blend of varieties or within specialized “mixes” created for various geographical locations. In this embodiment, Kentucky blue grass was fertilized under a normal application rate of 1.0 lb nitrogen per 1000 sq ft per month in high quality, high maintenance lawns. Turfgrass quality and toxicity were measured on a 1-9 visual basis with 9 representing the highest quality turf or the most injury, respectively.

Creeping bentgrass [5] = experiment: Turfgrass quality rating, creeping bentgrass greens; format: in vivo, Agrostis; settings: creeping bentgrass greens, 0.063, 0.125 and 0.25 lbs nitrogen/1000 sq ft bi-weekly
Procedure: as §1

Bermuda grass [6] = experiment: Burn after true foliar application, Bermuda grass fairways; format: in vivo, Cynodon spp.
Excerpt: as §2, §3

Solubility in water = format: physicochemical; settings: 25° C., read-out: solubility in H2O
Bermudagrass = experiment: Turfgrass quality rating, Bermudagrass in golf course fairway conditions; format: in vivo, Cynodon spp.; settings: monthly 0.5-3.0 lbs nitrogen/1000 sq ft
Procedure: (§4) Bermudagrass was grown and maintained in golf course fairway conditions. The bermudagrass was mown at a ½ inch height of cut and fertilized monthly between 0.5 and 3.0 lbs nitrogen per 1000 square feet. Lysine HCL and liquid lysine in aqueous solutions were compared with inorganic, quick release/response urea and the organic industry standard Milorganite. Urea, lysine HCl and liquid lysine were spray/liquid applied, while Milorganite was applied as a solid granular product.
Overall turf quality was rated weekly using a visual scale of 1-9 with 9 representing perfect turf (rarely attained, if ever). Ratings higher than 6.0 are considered acceptable while any rating below 6.0 is considered unacceptable. […] All fertilizers responded with acceptable turf ratings at all application rates, but lysine HCL trended better.
as §4, with “HCl applied as a solid granular was” for “HCL and liquid lysine in aqueous solutions were”, “Urea was” for “Urea, lysine HCl and liquid lysine were”
Lysine HCL was applied as a solid granular to compare with spray applied lysine HCL and liquid lysine. […]

Ultra-Dwarf Bermudagrass = experiment: Turfgrass quality rating, Ultra-Dwarf Bermudagrass golf greens; format: in vivo, Cynodon spp.; settings: normal 0.125 lb nitrogen/week rate
Excerpt: Ultra-dwarf bermudagrass is typically mown at ⅛ inch or lower and fertilized on a weekly basis which is termed “spoon feeding”. Lysine HCl, liquid lysine, Milogranite and urea were applied under substantially the same conditions as described in Example 1. Overall turf quality was rated weekly using a visual scale of 1-9 with 9 representing perfect turf. Ratings higher than 6.0 are considered acceptable while any rating below 6.0 is unacceptable.

St. Augustine grass = experiment: Turfgrass quality rating, St. Augustine grass fertilized monthly; format: in vivo, Stenotaphrum secundatum
Excerpt: St. Augustine grass was fertilized monthly at rates of between 0.5 and 3.0 lbs nitrogen/1000 square feet with lysine HCL and Liquid Lysine, which were compared with inorganic, quick release/response urea and the organic industry standard Milorganite. Urea, lysine HCl, and liquid lysine were spray/liquid applied, while Milorganite was applied as a solid granular product.
Overall turf quality was rated weekly using a visual scale of 1-9 with 9 representing perfect turf. Ratings higher than 6.0 are considered acceptable, while any rating below 6.0 is unacceptable.

Structure (SMILES)	phytotoxicity (injury) rating, visual 1-9 (Creeping bentgrass [1]; August)	toxicity rating, visual 1-9 (Creeping bentgrass [2]; August)	turfgrass quality rating (Creeping bentgrass [3])	turfgrass quality rating (Bermuda grass [4])	turfgrass quality (Kentucky blue grass)	turfgrass quality rating (Creeping bentgrass [5])	burn level (Bermuda grass [6]; depending upon rate of application, mean over seven weeks)	burn potential (Bermuda grass [6]; turfgrasses recover quickly)	solubility (Solubility in water) [mg/mL]	overall turf quality (visual scale 1-9) (Bermudagrass; applied as solid granular)	total seasonal turfgrass quality (visual scale 1-9) (Bermudagrass; aqueous spray applied)	phytotoxicity (injury) rating, visual 1-9 (Creeping bentgrass [1]; July)	overall turf quality performance (Ultra-Dwarf Bermudagrass)	overall turfgrass quality and residual activity (St. Augustine grass; half-rate of 0.5 lb nitrogen, ratings higher than 6.0 acceptable)	overall turfgrass quality (visual scale 1-9) (St. Augustine grass; monthly 0.5-3.0 lbs nitrogen/1000 sq ft, spray applied, growing season, versus urea and Milorganite)	overall turfgrass quality rating (St. Augustine grass; standard 1.0 lb nitrogen rate, compared to urea and milorganite)	toxicity rating, visual 1-9 (Creeping bentgrass [2]; June and July)
NC(N)=O [urea, reference compound]	significantly more injury than liquid lysine and lysine HCl	significantly higher toxicity levels															
Cl.NCCCC[C@H](N)C(=O)O [lysine HCl, lysine monohydrochloride]			statistically equal qualities as Coron	better than Coron and control plots	marginally better than urea	slightly better than the blended synthetic products and Milogranite	3-5%	high burn potential	500 to 600	as effective as or more effective than Milorganite and urea	seasonally better turfgrass quality at all rates tested compared to urea and milorganite	insignificant level of injury	statistically the same as that of urea	acceptable overall turfgrass quality and residual activity	trended better than urea and milorganite	noticeably higher	Slight and insignificant levels of toxicity
